# Experimental data as given in ChEMBL document CHEMBL1126469, “On the significance of the C-terminal primary amide in cholecystokinin” (Bioorg Med Chem Lett, 1993).
# How the values were obtained:
# [1] = biological target: T1, Gastrin/cholecystokinin type B receptor (Rattus norvegicus, UniProt P30553); experiment: In vitro binding affinity against Cholecystokinin type B receptor of rat pancreatic acini
# T1 sequence (P30553 whole entry): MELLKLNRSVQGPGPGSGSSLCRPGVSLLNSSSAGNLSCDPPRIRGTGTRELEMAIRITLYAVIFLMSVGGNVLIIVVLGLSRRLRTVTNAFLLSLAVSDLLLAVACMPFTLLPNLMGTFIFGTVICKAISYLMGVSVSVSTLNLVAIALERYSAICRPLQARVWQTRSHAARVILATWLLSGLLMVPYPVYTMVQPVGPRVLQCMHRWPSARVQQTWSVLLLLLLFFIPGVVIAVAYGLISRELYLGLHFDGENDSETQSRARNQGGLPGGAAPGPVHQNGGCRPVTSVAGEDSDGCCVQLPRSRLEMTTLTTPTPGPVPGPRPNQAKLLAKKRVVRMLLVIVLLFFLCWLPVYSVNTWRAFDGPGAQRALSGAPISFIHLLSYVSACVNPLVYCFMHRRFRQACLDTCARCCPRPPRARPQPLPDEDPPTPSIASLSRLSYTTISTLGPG
# [2] = organism: Rattus norvegicus; experiment: Antagonist activity against amylase secretion from rat pancreatic acini; type: functional, organism-based
# [3] = organism: Rattus norvegicus; experiment: The compound was tested for its ability to stimulate amylase secretion from rat pancreatic acini; type: functional, organism-based
SMILES,IC50 [1],EC50 ([3]; Rattus norvegicus),also measured
CCCC[C@H](NC(=O)[C@H](Cc1ccc(OS(=O)(=O)O)cc1)NC(=O)OC(C)(C)C)C(=O)NCC(=O)N[C@H](Cc1c[nH]c2ccccc12)C(=O)N[C@@H](CCCC)C(=O)N[C@@H](CC(=O)O)C(=O)NCCc1ccccc1,500 nM,–,IC50 [2]: 30 µM
CCCC[C@H](NC(=O)[C@H](Cc1ccc(OS(=O)(=O)O)cc1)NC(=O)OC(C)(C)C)C(=O)NCC(=O)N[C@H](Cc1c[nH]c2ccccc12)C(=O)N[C@@H](CCCC)C(=O)N[C@@H](CC(=O)O)C(=O)NC(Cc1ccccc1)Cc1ccccc1,–,86000 nM,–
CCCC[C@H](NC(=O)[C@H](Cc1ccc(OS(=O)(=O)O)cc1)NC(=O)OC(C)(C)C)C(=O)NCC(=O)N[C@@H](Cc1c[nH]c2ccccc12)C(=O)N[C@@H](CCCC)C(=O)N[C@@H](CC(=O)O)C(=O)NC(Cc1ccccc1)Cc1ccccc1,–,700 nM,–
CCCC[C@H](NC(=O)[C@H](Cc1ccc(OS(=O)(=O)O)cc1)NC(=O)OC(C)(C)C)C(=O)NCC(=O)N[C@H](Cc1c[nH]c2ccccc12)C(=O)N[C@@H](CCCC)C(=O)N[C@@H](CC(=O)O)C(=O)N(C)CCc1ccccc1,–,–,IC50 [2]: 26 µM
"CCCC[C@H](NC(=O)C(Cc1c[nH]c2ccccc12)NC(=O)CNC(=O)[C@H](CCCC)NC(=O)[C@H](Cc1ccc(OS(=O)(=O)O)cc1)NC(=O)OC(C)(C)C)C(=O)N[C@@H](CC(=O)O)C(=O)NCCc1ccccc1 (single isomer, unassigned)",48 nM,–,EC50 [3]: 70 nM
CCCC[C@H](NC(=O)[C@H](Cc1ccc(OS(=O)(=O)O)cc1)NC(=O)OC(C)(C)C)C(=O)NCC(=O)N[C@H](Cc1c[nH]c2ccccc12)C(=O)N[C@@H](CCCC)C(=O)N[C@@H](CC(=O)O)C(=O)NCC(c1ccccc1)c1ccccc1,–,9300 nM,–
CCCC[C@H](NC(=O)[C@H](Cc1ccc(OS(=O)(=O)O)cc1)NC(=O)OC(C)(C)C)C(=O)NCC(=O)N[C@@H](Cc1c[nH]c2ccccc12)C(=O)N[C@@H](CCCC)C(=O)N[C@@H](CC(=O)O)C(=O)NCCc1ccccc1,100 nM,–,EC50 [3]: 30 nM
CCCC[C@H](NC(=O)[C@H](Cc1ccc(OS(=O)(=O)O)cc1)NC(=O)OC(C)(C)C)C(=O)NCC(=O)N[C@@H](Cc1c[nH]c2ccccc12)C(=O)N[C@@H](CCCC)C(=O)N[C@@H](CC(=O)O)C(=O)NCC(c1ccccc1)c1ccccc1,–,32 nM,–
